Assays:
[1] = tested on: islet enriched pancreatic cells; assay: Ad-KLF4 with and without Rho-kinase inhibitor Y27632, gene expression; assay type: cell-based, human; settings: Y27632 20 uM; up to 10 days post infection
Method: FIG. 11. […] A one-way ANOVA was performed with Dunnett post hoc test comparing treatment groups. […] B: Samples were fixed and permeabilised at day 6 for E-cadherin and cleaved caspase-3.
Total RNA was extracted using TRIzol® and treated with DNaseI (both Life Technologies) followed by cDNA synthesis using 1 μg of RNA per sample. qRT-PCR mixtures were prepared using SensiMix II probe kit (Bioline, London, UK) and TaqMan gene expression assays (Applied Biosystems, Paisley, UK) as per manufacturer's instructions. cDNA was amplified on Roche LightCycler 480® for 50 cycles. Samples were run in triplicate and normalised to glyceraldehyde 3-phosphate dehydrogenase (GAPDH) and/or 60S ribosomal protein L13a (RPL13a). Data was analysed using the 2^−ΔΔCT method (Brodsky et al., 1999). Statistical analysis was performed using GraphPad Prism software and the Student t test or one-way/two-way ANOVA, followed by the Dunnett post hoc test, were used as appropriate.
We next hypothesised that adjusting the cell culture environment to promote survival of newly formed epithelial cells would enhance redifferentiation.

[2] = tested on: reprogrammed human exocrine pancreatic cells; assay: C-peptide ELISA of cell extracts, reprogrammed (siARX) with or without ZnCl2; assay type: cell-based; settings: ZnCl2 10 μM; p<0.01 relative to siARX
Method: FIG. 19. C-peptide ELISA measurements of cell extracts from untreated cells (N/A) or cells reprogrammed (siARX) in the absence or presence of ZnCl2 (10 μM). C-peptide levels were expressed level to protein content and represent […] (n=3). ***p<0.001 relative to NA and **p<0.01 relative to siARX.
(§1) Human exocrine fractions were thawed and plated on tissue culture 9 cm^2 dishes (Greiner, Stonehouse, UK) and cultured for two days in RPMI 1640 (Gibco, Life Technologies) supplemented with 10% foetal bovine serum (FBS), 10 mM HEPES, 1 mM sodium pyruvate (all from Gibco) and 75 μM β-mercaptoethanol (Sigma Aldrich). After 48 h, the cells were incubated for another 72 h in serum free medium (SFM) prepared with RPMI 1640, insulin-transferrin-selenium (Gibco) and 1% bovine serum albumin (Sigma), supplemented with 10 μM SB431542, 2 μM Y27632, 1 μM 5-Aza-2′deoxycytidine and 10 mM sodium butyrate (all from Sigma). On the next day the cells were incubated for 4 h with the adenoviruses encoding pancreatic transcription factors PDX1, MAFA, NGN3 and PAX4. On the following day the medium was changed for SFM supplemented with 1 nM betacellulin (R&D systems, Abingdon, UK), 10 nM exendin-4 and 10 mM nicotinamide (both from Sigma). The medium was changed every two days for another 6 days before harvesting. […]

[3] = tested on: reprogrammed human exocrine pancreatic cells; assay: RT-qPCR of cells reprogrammed (siARX) with or without zinc; assay type: cell-based; settings: ZnCl2 10 μM; partly attributed to increased PAX4 mRNA
Method: FIG. 18. RT-qPCR analysis of the three main endocrine hormones insulin (INS), glucagon (GCG) and somatostatin (SST) and the transcription factors PDX1, PAX4, MAFA, NEUROD, NGN3 and NKX6.1 in untreated (N/A) or cells reprogrammed (siARX) in the absence or presence of ZnCl2 (10 μM). Expression was normalised to glyceraldehyde 3-phosphate dehydrogenase. Data are representative of triplicate experiments and represented as mean+/−standard error of the mean.
as §1, with “Sigma).” for “Sigma). The medium was changed every two days for another 6 days before harvesting.”

For `C[C@@H](N)[C@H]1CC[C@H](C(=O)Nc2ccncc2)CC1` [Y27632], the “gene expression, Ad-KLF4 with vs without Y27632” value [1] was “no significant difference”.
With `[Cl-].[Cl-].[Zn+2]` [ZnCl2] the “insulin (C-peptide) protein content” value [2] was “stimulatory effect” and the insulin gene expression [3] was “significant effect”.
